Experiments:
[1] = system: ALDH1A1; test: ALDH1A1 immunocytochemistry of curcumin-surviving lines; assay type: cell-based, human; settings: survived 60 μM curcumin
Procedure: (§1) To select for a curcumin-surviving cell subpopulation, each of the ESCC cell lines was cultured in 100-mm dishes (1×10^5 cells/dish) with complete DMEM and incubated at 37° C. until reaching near confluency, approximately 80%. After incubation, the medium was removed and the cells were incubated in complete DMEM containing either 40 or 60 μM curcumin in dissolved in 0.2% DMSO for 30 hrs. After incubation, the medium-containing curcumin was removed and replaced with complete DMEM to allow cells that survived the treatment to grow. After the surviving cells formed colonies (normally four weeks after treatment), the colonies were counted, trypsinized, and passaged. The cell lines that developed were designated the curcumin-surviving cell lines.
(§2) To assess the expression of the stem cell markers ALDH1A1 and CD44 in both the original ESCC cell lines and the curcumin-surviving cell lines, each line was grown on glass cover slips in complete DMEM. After two days, the cover slips were rinsed with PBS and fixed with methanol for 5 min. The cover slips were then washed three times with PBS, exposed to 0.3% hydrogen peroxide for 3 min and rinsed three times with PBS. […]
(§3) The images of cell cultures immunostained for ALDH1A1 or CD44 were analyzed with ImageJ (NIH) and OriginLab (Microcal) software. […]

[2] = system: RelA (p65), the major subunit of NF-κB; test: NF-κB level by ELISA in curcumin-surviving lines; assay type: cell-based, human
Procedure: (§4) To select for a curcumin-surviving cell subpopulation, each of the ESCC cell lines was cultured in 100-mm dishes (1×10^5 cells/dish) with complete DMEM and incubated at 37° C. until reaching near confluency, approximately 80%. After incubation, the medium was removed and the cells were incubated in complete DMEM containing either 40 or 60 μM curcumin in dissolved in 0.2% DMSO for 30 hrs. After incubation, the medium-containing curcumin was removed and replaced with complete DMEM to allow cells that survived the treatment to grow. After the surviving cells formed colonies (normally four weeks after treatment), the colonies were counted, trypsinized, and passaged. The cell lines that developed were designated the curcumin-surviving cell lines. To determine the level of ALDH1A1 and RelA (p65), the major subunit of transcription factor (NF-κB), on both curcumin-surviving cells and original cell lines, ELISA was performed as described previously. Briefly, each cell line was cultured in 96-well plates (5×10^4 cells/well) and incubated for 24 hrs at 37° C. After incubation, the wells were washed once with PBS and fixed with methanol for 5 min; the wells were then washed twice with PBS. Different dilutions of each antibody (anti-p65, Santa Cruz Biotechnology, SC-109, 200 μg/ml, and anti-ALDH1A1, Proteintech Group, 15910-1-AP, 133 μg/ml) were prepared in complete DMEM (1:50, 1:100, 1:200 and 1:500, 1:1000, 1:2000, respectively). The wells were incubated with 100 μl of each dilution (3 wells/dilution) for 2 hrs at 37° C. After incubation, the wells were washed with PBS three times and incubated with 100 μl/well of galactosidase-conjugated goat anti-rabbit secondary antibody (Southern Biotech, Birmingham, Ala.) (1:500 dilution in complete DMEM) for 2 hrs at 37° C. […] The antigen-antibody reactions were measured by determining the optical density (O.D.) at 410 nm using MR-600 microwell plate reader (Dynatech Lab Inc.). The resulting absorbance was analyzed using ANOVA.

[3] = system: KY-10 cell line; test: crystal violet assay, cells remaining after curcumin; assay type: cell-based, human; settings: 30 hrs, concentration that kills half the cells
Procedure: (§5) To determine the effect of different doses of curcumin on the ESCC lines, each cell line was plated in 24-well plates (Corning) at a density of 5×10^4 cells/well in complete DMEM, and incubated at 37° C. Curcumin (Sigma-Aldrich, St Louis, Mo.) was dissolved in dimethyl sulfoxide (DMSO) to make a stock solution of 20 mM curcumin. For each experiment, stock solution was diluted to the final concentrations (20, 30, 40, 60 and 80 μM) in complete DMEM. Twenty-four hours after plating, the wells were washed with PBS once, and 1 ml of each curcumin dosage was added (4 wells/dosage) and incubated for 30 hrs. Four other wells received complete DMEM or complete DMEM with 0.2% DMSO as controls. The inhibition of cell growth in response to curcumin treatment was assayed with the crystal violet staining assay according to a standard protocol. Briefly, the cells in each well were washed once with PBS, stained with 200 μl crystal violet in 50% ethanol (10 mg/ml), and incubated at room temperature for 10 min. The crystal violet was then removed and the wells were washed two times with distilled water, and 600 μl of 1% sodium dodecylsulfate (SDS) in water was added to each well. The plates were maintained overnight at room temperature on a shaker to dissolve the dye. Absorbance was read at 490 nm using a Wallac Victor 1420 Multilabel plate reader (Perkin Elmer, Waltham, Mass.). The background readings from the SDS solution were subtracted from each reading and the percentage of cells remaining after curcumin treatment was calculated. The results were plotted in OriginPro 7.5 (OriginLab) and analyzed by ANOVA.
(§6) To assess the sensitivity of the six human ESCC lines to curcumin, the cell lines (TE-1, TE-8, KY-5, KY-10, YES-1, and YES-2) were plated in 24-well plates for 24 hrs and then exposed to 20, 30, 40, 60, and 80 μM curcumin and to 0.2% DMSO as a control for 30 hrs. The resulting cell density was determined by standard crystal violet assay. The cell density remaining after the treatment is shown in the dose-response curve (FIG. 2). […] However, KY-5 had the highest percentage of cells remaining at the highest curcumin concentration, and the YES-2 cell line had the lowest percentage of cells remaining. When the cell lines were ranked from low to high according to their sensitivity to 60 μM curcumin the order was: KY-5, YES-1, TE-8, TE-1, KY-10, and YES-2.

[4] = system: KY-5 cell line; test: as above; assay type: cell-based, human; settings: 30 hrs
Procedure: as §5, §6

[5] = system: YES-2 cell line; test: as above; assay type: cell-based, human; settings: 30 hrs
Procedure: as §5, §6

[6] = system: six human ESCC lines (TE-1, TE-8, KY-5, KY-10, YES-1, YES-2); test: as above; assay type: cell-based; settings: 20-80 μM curcumin, 30 hrs; all six ESCC lines
Procedure: as §5, with “The inhibition of cell growth in response to curcumin treatment was assayed with the crystal violet staining assay according to a standard protocol. Briefly, the cells in each well were washed once with PBS, stained with 200 μl crystal violet in 50% ethanol (10 mg/ml), and incubated at room temperature for 10 min. The crystal violet was then removed and the wells were washed two times with distilled water, and 600 μl of 1% sodium dodecylsulfate (SDS) in water was added to each well. The plates were maintained overnight at room temperature on a shaker to dissolve the dye.” left out
To assess the sensitivity of the six human ESCC lines to curcumin, the cell lines (TE-1, TE-8, KY-5, KY-10, YES-1, and YES-2) were plated in 24-well plates for 24 hrs and then exposed to 20, 30, 40, 60, and 80 μM curcumin and to 0.2% DMSO as a control for 30 hrs. The resulting cell density was determined by standard crystal violet assay. […]

[7] = system: CD44; test: CD44 immunocytochemistry of curcumin-surviving lines; assay type: cell-based, human
Procedure: as §1, §2, §3

[8] = system: KY-10 cell line; test: surviving colonies after curcumin treatment; assay type: cell-based, human; settings: 60 μM curcumin, 30 hrs
Procedure: as §1
(§7) According to the dose-response results, 60 μM curcumin was chosen to select for the curcumin-surviving cell line subpopulations. To establish this subpopulation, 1×10^5 cells from each ESCC lines were plated into a 100 mm tissue culture dishes and incubated until they reached near confluency. The cells were then exposed to 60 μM curcumin for 30 hrs. and the surviving colonies formed were counted. The number of colonies formed after 60 μM curcumin treatment varied among the six cell lines.

[9] = system: KY-5 cell line; test: surviving colonies after curcumin treatment; assay type: cell-based, human; settings: 60 μM curcumin, 30 hrs
Procedure: as §1, §7

[10] = system: TE-8 cell line; test: surviving colonies after curcumin treatment; assay type: cell-based, human; settings: 60 μM curcumin, 30 hrs
Procedure: as §1, §7

[11] = system: TE-1 cell line; test: surviving colonies after curcumin treatment; assay type: cell-based, human; settings: 60 μM curcumin, 30 hrs
Procedure: as §1, §7

[12] = system: YES-1 cell line; test: surviving colonies after curcumin treatment; assay type: cell-based, human; settings: 60 μM curcumin, 30 hrs
Procedure: as §1, §7

[13] = system: YES-2 cell line; test: surviving colonies after curcumin treatment; assay type: cell-based, human; settings: 30 hrs
Procedure: as §1, §7

[14] = system: ALDH1A1; test: ALDH1A1 level by ELISA in curcumin-surviving lines; assay type: cell-based, human; settings: all six surviving lines; t-test p<0.005
Procedure: as §4, with “PBS.” for “PBS. Different dilutions of each antibody (anti-p65, Santa Cruz Biotechnology, SC-109, 200 μg/ml, and anti-ALDH1A1, Proteintech Group, 15910-1-AP, 133 μg/ml) were prepared in complete DMEM (1:50, 1:100, 1:200 and 1:500, 1:1000, 1:2000, respectively). The wells were incubated with 100 μl of each dilution (3 wells/dilution) for 2 hrs at 37° C. After incubation, the wells were washed with PBS three times and incubated with 100 μl/well of galactosidase-conjugated goat anti-rabbit secondary antibody (Southern Biotech, Birmingham, Ala.) (1:500 dilution in complete DMEM) for 2 hrs at 37° C.”

[15] = concentration that kills half the cells

COc1cc(/C=C/C(=O)CC(=O)/C=C/c2ccc(O)c(OC)c2)ccc1O [curcumin]
percentage of high ALDH1A1-staining cells in curcumin-surviving line ([1]; KY-5S, original lines ranged 11.3% to 55.7%, KY-5 greatest): 19% | percentage of high ALDH1A1-staining cells in curcumin-surviving line ([1]; TE-8S): 0% | NF-κB level of curcumin-surviving lines compared to original lines ([2]; KY-5, YES-1 and YES-2 surviving lines, t-test p<0.005): lower NF-κB levels | NF-κB level of curcumin-surviving line compared to original line ([2]; KY-10 surviving line, t-test p>0.05): no difference | NF-κB level of curcumin-surviving lines compared to original lines ([2]; TE-1 and TE-8 surviving lines): increase of NF-κB level | LD50 [3]: less than 10 μM | cells remaining after curcumin ([4]; 80 μM curcumin, crystal violet): 37% | LD50 [4, 15]: 32 µM | attached cells remaining after curcumin ([5]; 80 μM curcumin, crystal violet): 4% | LD50 [5, 15]: 15 µM | reduction in cells [6]: reduction in cells in a dosage dependent manner | percentage of high CD44-staining cells in curcumin-surviving line ([7]; YES-1S, survived 60 μM curcumin, original YES-1 16%): 6.5% | percentage of high CD44-staining cells in curcumin-surviving line ([7]; YES-2S, survived 40 μM curcumin, original YES-2 19%): 9.2% | number of surviving colonies formed [8]: 19 | number of surviving colonies formed [9]: too many colonies to count | number of surviving colonies formed [10]: 17 | number of surviving colonies formed [11]: 8 | number of surviving colonies formed [12]: 25 | number of surviving colonies formed ([13]; 40 μM curcumin): 15 | number of surviving colonies formed ([13]; 60 μM curcumin): 0 | ALDH1A1 level of curcumin-surviving lines compared to original lines [14]: lower ALDH1A1 level

— US9080154B1, “Cancer stem cell survivor lines” (BOWLING GREEN STATE UNIVERSITY, priority 2012, dated 2015)
